Measurements reported in paper PMC12638379, “An innovative approach to development of new pyrazolylquinolin-2-one hybrids as dual EGFR and BRAF^V600E inhibitors” (Molecular Diversity, 2025).
Where two headings read alike, the source gives them in different places.

System: NCI 60 cancer cell lines
Assay: NCI anticancer screening over a panel of 60 cancer cells, single concentration 10 µM
Assay type: cell-based, human
Settings: Homo sapiens, read-out: Growth inhibition (GI %)
How it was run: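 Primary single-dose screen at 10 µM over the NCI panel of 60 human tumour cell lines (leukemia, CNS, lung, colon, kidney, ovary, breast, prostate). The standard NCI Developmental Therapeutics Program protocol was used.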

CC(=O)c1cnn(-c2cc(=O)[nH]c3ccc(C)cc23)c1C [Compound 2b, 4-(4-Acetyl-5-methyl-1H-pyrazol-1-yl)-6-methylquinolin-2(1H)-one]
inhibition at 10 µM (786-0, Renal cancer 786-0, 10 μM): < 5%
inhibition at 10 µM (A498, Renal cancer A498, 10 μM): < 5%
inhibition at 10 µM (A549, Non-small cell lung cancer A549/ATCC, 10 μM): < 5%
inhibition at 10 µM (ACHN, Renal cancer ACHN, 10 μM): < 5%
inhibition at 10 µM (BT-549, Breast cancer BT-549, 10 μM): < 5%
inhibition at 10 µM (CAKI-1, Renal cancer CAKI-1, 10 μM): 8.89%
inhibition at 10 µM (CCRF-CEM, Leukemia CCRF-CEM, 10 μM): < 5%
inhibition at 10 µM (COLO 205, Colon cancer COLO 205, 10 μM): < 5%
inhibition at 10 µM (DU-145, Prostate cancer DU-145, 10 μM): < 5%
inhibition at 10 µM (EKVX, Non-small cell lung cancer EKVX, 10 μM): < 5%
inhibition at 10 µM (HCC 2998, Colon cancer HCC-2998, 10 μM): < 5%
inhibition at 10 µM (HCT-15, Colon cancer HCT-15, 10 μM): < 5%
inhibition at 10 µM (HCT-116, Colon cancer HCT-116, 10 μM): < 5%
inhibition at 10 µM (HL-60, Leukemia HL-60(TB), 10 μM): 19%
inhibition at 10 µM (HOP-62, Non-small cell lung cancer HOP-62, 10 μM): 6.93%
inhibition at 10 µM (HOP-92, Non-small cell lung cancer HOP-92, 10 μM): < 5%
inhibition at 10 µM (HT-29, Colon cancer HT29, 10 μM): < 5%
inhibition at 10 µM (Hs-578T, Breast cancer HS 578T, 10 μM): < 5%
inhibition at 10 µM (IGROV-1, Ovarian cancer IGROV1, 10 μM): < 5%
inhibition at 10 µM (K562, Leukemia K-562, 10 μM): < 5%
inhibition at 10 µM (KM12, Colon cancer KM12, 10 μM): < 5%
inhibition at 10 µM (LOX IMVI, Melanoma LOX IMVI, 10 μM): 5.38%
inhibition at 10 µM (Leukemia SR, 10 μM): < 5%
inhibition at 10 µM (MDA-MB-231, Breast Cancer MDA-MB 231/ATCC, 10 μM): < 5%
inhibition at 10 µM (MDA-MB-435, Melanoma MDA-MB-435, 10 μM): < 5%
inhibition at 10 µM (MDA-MB-468, Breast cancer MDA-MB-468, 10 μM): < 5%
inhibition at 10 µM (MOLT-4, Leukemia MOLT-4, 10 μM): < 5%
inhibition at 10 µM (Malme-3M, Melanoma MALME-3M, 10 μM): < 5%
inhibition at 10 µM (Melanoma M14, 10 μM): < 5%
inhibition at 10 µM (NCI-H23, Non-small cell lung cancer NCI-H23, 10 μM): < 5%
inhibition at 10 µM (NCI-H226, Non-small cell lung cancer NCI-H226, 10 μM): < 5%
inhibition at 10 µM (NCI-H322M, Non-small cell lung cancer NCI-H322M, 10 μM): < 5%
inhibition at 10 µM (NCI-H460, Non-small cell lung cancer NCI-H460, 10 μM): < 5%
inhibition at 10 µM (NCI-H522, Non-small cell lung cancer NCI-H522, 10 μM): 6.79%
inhibition at 10 µM (NCI/ADR-RES, Ovarian cancer NCI/ADR-RES, 10 μM): < 5%
inhibition at 10 µM (OVCAR-3, Ovarian cancer OVCAR-3, 10 μM): < 5%
inhibition at 10 µM (OVCAR-4, Ovarian cancer OVCAR-4, 10 μM): < 5%
inhibition at 10 µM (OVCAR-5, Ovarian cancer OVCAR-5, 10 μM): < 5%
inhibition at 10 µM (OVCAR-8, Ovarian cancer OVCAR-8, 10 μM): < 5%
inhibition at 10 µM (Prostate cancer PC-3, 10 μM): 4.29%
inhibition at 10 µM (RPMI-8226, Leukemia RPMI-8226, 10 μM): < 5%
inhibition at 10 µM (RXF 393, Renal cancer RXF 393, 10 μM): < 5%
inhibition at 10 µM (SF-268, CNS Cancer SF-268, 10 μM): < 5%
inhibition at 10 µM (SF-295, CNS Cancer SF-295, 10 μM): < 5%
inhibition at 10 µM (SF-539, CNS Cancer SF-539, 10 μM): < 5%
inhibition at 10 µM (SK-MEL-2, Melanoma SK-MEL-2, 10 μM): < 5%
inhibition at 10 µM (SK-MEL-5, Melanoma SK-MEL-5, 10 μM): < 5%
inhibition at 10 µM (SK-MEL-28, Melanoma SK-MEL-28, 10 μM): < 5%
inhibition at 10 µM (SK-OV-3, Ovarian cancer SK-OV-3, 10 μM): < 5%
inhibition at 10 µM (SN12C, Renal cancer SN12C, 10 μM): < 5%
inhibition at 10 µM (SNB-19, CNS Cancer SNB-19, 10 μM): < 5%
inhibition at 10 µM (SNB-75, CNS Cancer SNB-75, 10 μM): < 5%
inhibition at 10 µM (SW-620, Colon cancer SW-620, 10 μM): < 5%
inhibition at 10 µM (T47D, Breast cancer T-47D, 10 μM): 6.75%
inhibition at 10 µM (TK-10, Renal cancer TK-10, 10 μM): < 5%
inhibition at 10 µM (U-251, CNS Cancer U251, 10 μM): 5.31%
inhibition at 10 µM (UACC-62, Melanoma UACC-62, 10 μM): < 5%
inhibition at 10 µM (UACC-257, Melanoma UACC-257, 10 μM): < 5%
inhibition at 10 µM (UO-31, Renal cancer UO-31, 10 μM): 19%
